Laboratory results as given in patent US20140005163A1 (NOVARTIS AG, priority 2010, published 2014).
pIC50: −log10 of the molar value.

Assays:
PI3K delta = biological target: T1, PI3K delta (Homo sapiens, UniProt O00329); assay: PI3K delta kinase assay (Kinase-Glo luminescence); format: biochemical
T1 construct: for the full-length p110-d subunit are generated and fused by overlapping PCR; p85(iSH2) fusion partner (see partner chain) (N); His tag (C); made in house; host or cells: baculovirus; Tn5 (Trichoplusia ni) or TiniPro insect cells
T1 sequence (O00329 with tags, fused parts or gaps limits assumed): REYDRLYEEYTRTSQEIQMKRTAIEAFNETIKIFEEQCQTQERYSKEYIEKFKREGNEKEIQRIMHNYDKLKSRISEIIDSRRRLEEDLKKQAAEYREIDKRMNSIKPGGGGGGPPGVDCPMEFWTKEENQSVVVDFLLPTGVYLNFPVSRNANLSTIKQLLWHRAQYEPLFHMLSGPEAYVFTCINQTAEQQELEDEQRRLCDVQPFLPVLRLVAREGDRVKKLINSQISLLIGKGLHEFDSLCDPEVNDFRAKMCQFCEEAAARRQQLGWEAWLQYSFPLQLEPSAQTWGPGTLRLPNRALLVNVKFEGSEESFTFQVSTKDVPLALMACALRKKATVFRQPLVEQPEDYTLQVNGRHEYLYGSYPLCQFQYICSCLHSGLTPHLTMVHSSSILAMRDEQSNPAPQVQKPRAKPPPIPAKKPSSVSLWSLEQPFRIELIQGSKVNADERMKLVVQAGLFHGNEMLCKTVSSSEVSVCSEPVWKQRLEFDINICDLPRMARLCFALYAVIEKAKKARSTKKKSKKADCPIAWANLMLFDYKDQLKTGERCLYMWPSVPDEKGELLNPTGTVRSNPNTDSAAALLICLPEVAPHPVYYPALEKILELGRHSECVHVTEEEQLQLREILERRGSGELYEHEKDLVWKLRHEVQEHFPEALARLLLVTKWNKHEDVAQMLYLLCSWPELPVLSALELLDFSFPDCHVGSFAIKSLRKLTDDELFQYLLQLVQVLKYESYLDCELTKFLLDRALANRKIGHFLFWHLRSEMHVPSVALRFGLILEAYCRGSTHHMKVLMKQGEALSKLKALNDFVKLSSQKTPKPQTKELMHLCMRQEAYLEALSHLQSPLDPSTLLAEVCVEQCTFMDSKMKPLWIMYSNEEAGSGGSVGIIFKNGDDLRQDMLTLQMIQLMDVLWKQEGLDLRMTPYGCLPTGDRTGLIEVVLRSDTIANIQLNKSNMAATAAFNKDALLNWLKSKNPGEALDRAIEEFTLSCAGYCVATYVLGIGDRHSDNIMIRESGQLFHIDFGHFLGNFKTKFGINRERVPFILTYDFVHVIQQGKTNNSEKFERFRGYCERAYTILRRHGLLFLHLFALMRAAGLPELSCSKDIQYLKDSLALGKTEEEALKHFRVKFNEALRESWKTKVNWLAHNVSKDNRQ
How it was run: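 Lipid kinase activity of a His-tagged p110δ full-length/p85 iSH2 fusion (10 nM) toward bovine liver phosphatidylinositol (10 μg/mL) at 1 μM ATP, pH 7.5, 60 min, room temperature. ATP consumption is quantified by luciferase-based luminescence. Four-parameter logistic fitting gives IC50.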

PI3K gamma = biological target: T2, PI3K gamma (Homo sapiens, UniProt P48736); assay: PI3K gamma kinase assay (Kinase-Glo luminescence); format: biochemical
T2 construct: His tag (C); made in house; host or cells: baculovirus (pVL1393); Tn5 or TiniPro insect cells; construct from Roger Williams lab, MRC LMB
T2 sequence (P48736 144-1102 limits assumed): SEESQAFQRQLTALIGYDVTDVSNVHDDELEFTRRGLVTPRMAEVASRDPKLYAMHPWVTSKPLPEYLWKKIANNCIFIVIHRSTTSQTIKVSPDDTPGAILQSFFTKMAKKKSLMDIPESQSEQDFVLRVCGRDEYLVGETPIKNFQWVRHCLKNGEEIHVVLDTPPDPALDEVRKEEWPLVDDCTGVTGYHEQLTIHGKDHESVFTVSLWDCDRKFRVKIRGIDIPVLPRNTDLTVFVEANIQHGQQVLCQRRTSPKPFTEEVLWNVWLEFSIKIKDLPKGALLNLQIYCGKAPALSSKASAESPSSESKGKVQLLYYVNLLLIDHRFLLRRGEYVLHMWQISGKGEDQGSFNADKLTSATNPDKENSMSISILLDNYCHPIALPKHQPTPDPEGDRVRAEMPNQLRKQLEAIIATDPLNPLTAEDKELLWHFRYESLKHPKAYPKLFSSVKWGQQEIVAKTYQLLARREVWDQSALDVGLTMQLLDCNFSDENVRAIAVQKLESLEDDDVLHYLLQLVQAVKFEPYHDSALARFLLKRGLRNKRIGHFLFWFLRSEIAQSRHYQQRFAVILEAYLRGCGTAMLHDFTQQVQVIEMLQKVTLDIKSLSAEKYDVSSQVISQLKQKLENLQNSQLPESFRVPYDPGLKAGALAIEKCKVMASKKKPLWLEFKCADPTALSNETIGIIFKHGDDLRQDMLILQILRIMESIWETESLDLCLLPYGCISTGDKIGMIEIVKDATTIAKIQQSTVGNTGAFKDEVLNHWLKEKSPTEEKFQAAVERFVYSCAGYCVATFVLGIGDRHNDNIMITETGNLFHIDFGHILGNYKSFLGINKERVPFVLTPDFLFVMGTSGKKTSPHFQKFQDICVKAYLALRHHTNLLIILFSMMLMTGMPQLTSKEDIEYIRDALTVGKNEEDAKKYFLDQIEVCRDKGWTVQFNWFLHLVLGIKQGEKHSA
How it was run: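 Luminescent ATP-depletion (Kinase-Glo) assay with 150 nM PI3Kγ, 1 μM ATP and 10 μg/mL phosphatidylinositol in 10 mM Tris-HCl pH 7.5, 3 mM MgCl2, 50 mM NaCl, 0.05% CHAPS, 1 mM DTT; 120 min at room temperature. Eight-point dilutions; IC50 by four-parameter logistic fit.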

[1] = tested on: PKB Ser473 phosphorylation in Rat1-myr-HA-p110 alpha cells; assay: Reverse protein array assay, PKB Ser473 phosphorylation in Rat1-myr-p110 alpha cells; format: cell-based; conditions: 0.5 h, pAkt Ser473, 30 minutes compound incubation, read-out: p-PKB IC50
How it was run: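 Cells: Rat1-myr-HA-p110 alpha/beta/delta, seeded ≥20 h. Lysis on ice 10 min; reverse-phase protein array, 4 lysate dilutions; fluorescence read, relative intensity.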

Structure (SMILES) | pIC50 (PI3K delta) | pIC50 (PI3K gamma) | pIC50 [1]
Cc1cncc(-c2ccc3ncc4c(c3c2)n(-c2cn(C)nc2C)c(=O)n4C)c1 [Example 24, 1-(1,3-Dimethyl-1H-pyrazol-4-yl)-3-methyl-8-(5-methyl-pyridin-3-yl)-1,3-dihydro-imidazo[4,5-c]quinolin-2-one] | 7.39 | 6.95 | 7.11
CCOc1ccc(-c2ccc3ncc4c(c3c2)n(-c2c(C)nn(C)c2C)c(=O)n4C)cc1OCC [Example 27.2, 8-(3,4-Diethoxy-phenyl)-3-methyl-1-(1,3,5-trimethyl-1H-pyrazol-4-yl)-1,3-dihydro-imidazo[4,5-c]quinolin-2-one] | 7.30 | 6.86 | 7.85
CCOc1ccc(-c2ccc3ncc4c(c3c2)n(-c2cn(CC)nc2C)c(=O)n4C)cc1OC [Example 29.1, 8-(4-Ethoxy-3-methoxy-phenyl)-1-(1-ethyl-3-methyl-1H-pyrazol-4-yl)-3-methyl-1,3-dihydro-imidazo[4,5-c]quinolin-2-one] | 7.57 | 7.16 | 8.30
Cc1nn(C)cc1-n1c(=O)n(C)c2cnc3ccc(-c4cnc5ccccc5c4)cc3c21 [Example 38, 1-(1,3-Dimethyl-1H-pyrazol-4-yl)-3-methyl-8-quinolin-3-yl-1,3-dihydro-imidazo[4,5-c]quinolin-2-one] | 8.15 | 6.91 | 8.15
Cc1nn(C)cc1-n1c(=O)n(C)c2cnc3ccc(-c4cccc(S(=O)(=O)N5CCCC5)c4)cc3c21 [Example 44, 1-(1,3-Dimethyl-1H-pyrazol-4-yl)-3-methyl-8-[3-(pyrrolidine-1-sulfonyl)-phenyl]-1,3-dihydro-imidazo[4,5-c]quinolin-2-one] | 7.55 | 6.63 | 7.39
Cc1nn(C)cc1-n1c(=O)n(C)c2cnc3ccc(-c4ccc(-n5cccn5)cc4)cc3c21 [Example 51.1, 1-(1,3-Dimethyl-1H-pyrazol-4-yl)-3-methyl-8-(4-pyrazol-1-yl-phenyl)-1,3-dihydro-imidazo[4,5-c]quinolin-2-one] | 6.93 | 6.67 | > 8.30
CCOc1cncc(-c2ccc3ncc4c(c3c2)n(-c2cn(CC(=O)N(C)C)nc2C)c(=O)n4C)c1 [Example 56.2, 2-{4-[8-(5-Ethoxy-pyridin-3-yl)-3-methyl-2-oxo-2,3-dihydro-imidazo[4,5-c]quinolin-1-yl]-3-methyl-pyrazol-1-yl}-N,N-dimethyl-acetamide] | 6.92 | 6.70 | 6.52
CCOc1ncc(-c2ccc3ncc4c(c3c2)n(-c2cn(C)nc2C)c(=O)n4C)cc1N(C)C(C)=O [Example 63, N-{5-[1-(1,3-Dimethyl-1H-pyrazol-4-yl)-3-methyl-2-oxo-2,3-dihydro-1H-imidazo[4,5-c]quinolin-8-yl]-2-ethoxy-pyridin-3-yl}-N-methyl-acetamide] | 7.70 | 6.09 | 6.58
Cc1ncc(-c2ccc3ncc4c(c3c2)n(-c2cn(C)nc2C)c(=O)n4C)cc1NS(C)(=O)=O [Example 76, N-{5-[1-(1,3-Dimethyl-1H-pyrazol-4-yl)-3-methyl-2-oxo-2,3-dihydro-1H-imidazo[4,5-c]quinolin-8-yl]-2-methyl-pyridin-3-yl}-methanesulfonamide] | 8.52 | 7.02 | 6.74
COC(=O)c1ccc(-c2ccc3ncc4c(c3c2)n(-c2cn(C)nc2C)c(=O)n4C)cn1 [Example 100, 5-[1-(1,3-Dimethyl-1H-pyrazol-4-yl)-3-methyl-2-oxo-2,3-dihydro-1H-imidazo[4,5-c]quinolin-8-yl]-pyridine-2-carboxylic acid methyl ester] | 7.03 | 6.54 | 7.92
COCc1ccc(-c2ccc3ncc4c(c3c2)n(-c2cn(C(C)C)nc2C)c(=O)n4C)cn1 [Example 105, 1-(1-Isopropyl-3-methyl-1H-pyrazol-4-yl)-8-(6-methoxymethyl-pyridin-3-yl)-3-methyl-1,3-dihydro-imidazo[4,5-c]quinolin-2-one] | 7.28 | 6.51 | 7.11
